Results as given in patent publication US8815893B2, “Hetarylaminonaphthyridines” (Merck Patent GmbH, priority 2010, dated 2014).

How the values were obtained:
[1] = target: T1, GST-ALK5 (Homo sapiens, UniProt P36897); assay: In-vitro (enzyme) kinase assay, 384-well flashplate (example 14); assay type: biochemical; conditions: GST-ALK5, GST-SMAD2 substrate, 33P-ATP flashplate, 30° C. 45 min; IC50 classes; read-out: TβR activity (example 14)
T1 sequence (P36897 34-503): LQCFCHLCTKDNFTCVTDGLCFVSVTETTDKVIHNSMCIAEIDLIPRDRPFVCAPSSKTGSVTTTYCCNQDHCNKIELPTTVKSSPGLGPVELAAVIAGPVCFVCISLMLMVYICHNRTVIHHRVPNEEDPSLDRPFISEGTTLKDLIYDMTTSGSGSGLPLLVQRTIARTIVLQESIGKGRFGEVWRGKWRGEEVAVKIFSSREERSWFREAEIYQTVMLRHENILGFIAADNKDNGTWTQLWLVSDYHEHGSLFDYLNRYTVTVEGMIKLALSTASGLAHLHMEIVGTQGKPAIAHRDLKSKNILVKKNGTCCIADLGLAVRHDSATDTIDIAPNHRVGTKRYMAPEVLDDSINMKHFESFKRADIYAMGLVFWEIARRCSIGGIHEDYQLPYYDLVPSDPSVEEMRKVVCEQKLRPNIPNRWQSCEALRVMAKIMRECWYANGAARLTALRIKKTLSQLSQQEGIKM
Procedure: In-Vitro (Enzyme) Assay for Determination of the Efficacy of Inhibitors of the Inhibition of TGF-Beta-Mediated Effects
The kinase assay was carried out as 384-well flashplate assay. 31.2 nM of GST-ALK5, 439 nM of GST-SMAD2 and 3 mM of ATP (with 0.3 μCi of ^33P-ATP/well) were incubated in a total volume of 35 μl (20 mM of HEPES, 10 mM of MgCl2, 5 mM of MnCl2, 1 mM of DTT, 0.1% of BSA, pH 7.4) without or with test substance (5-10 concentrations) at 30° C. for 45 min. The reaction was stopped using 25 μl of 200 mM EDTA solution, filtered with suction at room temperature after 30 min, and the wells were washed with 3 times 100 μl of 0.9% NaCl solution. Radioactivity was measured in the TopCount. The IC50 values were calculated using RS1. Above and below, all temperatures were indicated in ° C.

[2] = system: lung epithelial cell line Mv1Lu; assay: Cellular assay for TGF-beta receptor I kinase inhibitors: elimination of TGF-beta-mediated growth inhibition (example 13); assay type: cell-based; conditions: 48 h; Mv1Lu cells, 1 ng/ml TGF-beta, 0.5% FCS, two days, Crystal Violet staining; read-out: TβR activity (example 13)
Procedure: Cellular Assay for Testing TGF-Beta Receptor I Kinase Inhibitors
As an example, the ability of the inhibitors to eliminate TGF-beta-mediated growth inhibition was tested. Cells of the lung epithelial cell line Mv1Lu were sown in a defined cell density in a 96-well microtiter plate and cultivated overnight under standard conditions. Next day, the medium was replaced by medium which comprises 0.5% of FCS and 1 ng/ml of TGF-beta, and the test substances were added in defined concentrations, generally in the form of dilution series with 5 fold steps. The concentration of the solvent DMSO was constant at 0.5%. After a further two days, Crystal Violet staining of the cells was carried out. After extraction of the Crystal Violet from the fixed cells, the absorption was measured spectrophotometrically at 550 nm. It could be used as a quantitative measure of the adherent cells present and thus of the cell proliferation during the culture.

Row | IC50 [1] [nM] | SMILES | IC50 [2] [nM]
1 | < 100 | CC(C)NC(=O)c1cnccc1Nc1cc(-c2cc(Cl)ccc2F)nc2ncccc12 [compound 99] | < 100
2 | 1000 to 10000 | Fc1ccc(Cl)cc1-c1cc(Cc2ccncc2)c2cccnc2n1 [compound 75] | > 10000
3 | < 100 | CC(C)(C)CC(=O)Nc1cc(Nc2cc(-c3ccccc3F)nc3ncccc23)ncn1 [compound 114] | 100 to 1000
4 | 100 to 1000 | CS(=O)(=O)Nc1cc(Nc2cc(-c3cc(Cl)ccc3F)nc3ncccc23)ccn1 [compound 74] | 1000 to 10000
5 | < 100 | CCCC(=O)Nc1cc(Nc2cc(-c3cc(Cl)ccc3F)nc3ncccc23)ccn1 [compound 91] | < 100
6 | 100 to 1000 | Oc1nccc(Nc2cc(-c3cc(Cl)ccc3F)nc3ncccc23)n1 [compound 76] | 1000 to 10000
7 | < 100 | Nc1cc(Nc2cc(-c3ccccc3F)nc3ncccc23)ncn1 [compound 86] | 100 to 1000
8 | 1000 to 10000 | CN(C)CCNC(=O)c1cc(Nc2cc(-c3cc(F)ccc3F)nc3ncccc23)ccn1 [compound 119] | > 10000
9 | 1000 to 10000 | CCN1CCN(C(=O)c2cnccc2Nc2cc(-c3cc(Cl)ccc3F)nc3ncccc23)CC1 [compound 132] | 1000 to 10000
10 | 100 to 1000 | Cc1ccc(-c2cc(Nc3ccncc3)c3cccnc3n2)o1 [compound 123] | 100 to 1000
11 | 100 to 1000 | CC(C)(C)C(=O)Nc1cc(Nc2cc(-c3cc(Cl)ccc3F)nc3ncccc23)ncn1 [compound 101] | 1000 to 10000
12 | < 100 | Nc1cc(Nc2cc(-c3cc(F)ccc3F)nc3ncccc23)ncn1 [compound 106] | 100 to 1000
13 | < 100 | OCc1cnccc1Nc1cc(-c2cc(F)ccc2F)nc2ncccc12 [compound 78] | < 100
14 | < 100 | CC(C)C(=O)Nc1cc(Nc2cc(-c3cc(Cl)ccc3F)nc3ncccc23)ncn1 [compound 92] | < 100
15 | 1000 to 10000 | Fc1ccc(Cl)cc1-c1cc(Nc2cc(NC3CCCCC3)ncn2)c2cccnc2n1 [compound 124] | > 10000
16 | < 100 | NCC(=O)Nc1cc(Nc2cc(-c3cc(Cl)ccc3F)nc3ncccc23)ncn1 [compound 110] | < 100
17 | 100 to 1000 | CNC(=O)c1cc(Nc2cc(-c3cc(F)ccc3F)nc3ncccc23)ccn1 [compound 118] | 1000 to 10000
18 | < 100 | O=c1[nH]cc(-c2cc(-c3cc(Cl)ccc3F)nc3ncccc23)c2ccncc12 [compound 140] | < 100
19 | 100 to 1000 | COCCNc1cc(Nc2cc(-c3cc(F)ccc3F)nc3ncccc23)ncn1 [compound 138] | 100 to 1000
20 | 100 to 1000 | COC(=O)c1nccc2c1ccn2-c1cc(-c2cc(Cl)ccc2F)nc2ncccc12 [compound 108] | 1000 to 10000
21 | < 100 | CC(C)(C)CC(=O)Nc1cc(Nc2cc(-c3cc(Cl)ccc3F)nc3ncccc23)ccn1 [compound 87] | < 100
22 | < 100 | O=C(CO)Nc1cc(Nc2cc(-c3cc(Cl)ccc3F)nc3ncccc23)ccn1 [compound 82] | < 100
23 | > 10000 | CCOC(=O)c1cc(Nc2cc(-c3cc(F)ccc3F)nc3ncccc23)ccn1 [compound 128] | > 10000
24 | 100 to 1000 | Cc1cccc(-c2cc(Nc3ccnc(Cl)c3)c3cccnc3n2)n1 [compound 83] | 1000 to 10000
25 | < 100 | CCN1CCC(CNc2cc(Nc3cc(-c4cc(F)ccc4F)nc4ncccc34)ncn2)CC1 [compound 141] | 100 to 1000
26 | < 100 | Cc1cccc(-c2cc(Nc3ccncc3Cl)c3cccnc3n2)n1 [compound 80] | < 100
27 | < 100 | NC(=O)Nc1cc(Nc2cc(-c3cc(F)ccc3F)nc3ncccc23)ccn1 [compound 143] | < 100
28 | > 10000 | CN1CCN(c2nccc(Nc3cc(-c4cc(Cl)ccc4F)nc4ncccc34)n2)CC1 [compound 93] | > 10000

Row | IC50 [1] [nM] | SMILES | IC50 [2] [nM]
29 | < 100 | CNc1nccc(Nc2cc(-c3cccc(C)n3)nc3ncccc23)n1 [compound 90] | 100 to 1000
30 | < 100 | CC(=O)Nc1nccc(Nc2cc(-c3cc(Cl)ccc3F)nc3ncccc23)n1 [compound 98] | < 100
31 | 1000 to 10000 | COC(=O)c1cc(Nc2cc(-c3cc(F)ccc3F)nc3ncccc23)ccn1 [compound 116] | > 10000
32 | < 100 | CN1CCC(C(=O)Nc2cc(Nc3cc(-c4ccccc4F)nc4ncccc34)ncn2)CC1 [compound 115] | 100 to 1000
33 | 100 to 1000 | CCOc1ccc(Cl)cc1-c1cc(Nc2ccnc(NC(C)=O)c2)c2cccnc2n1 [compound 79] | 100 to 1000
34 | > 10000 | Cc1cccc(-c2cc(Nc3cc(F)nc(N4CCOCC4)n3)c3cccnc3n2)n1 [compound 84] | > 10000
35 | 100 to 1000 | O=c1c2cnccc2c(-c2cc(-c3cc(Cl)ccc3F)nc3ncccc23)cn1CCN1CCCC1 [compound 146] | 100 to 1000
36 | < 100 | CC(=O)Nc1cc(Nc2cc(-c3ccccc3F)nc3ncccc23)ncn1 [compound 88] | 100 to 1000
37 | > 10000 | CC(C)Oc1cccc(-c2cc(Nc3cc(NCCN4CCCC4)ncn3)c3cccnc3n2)c1 [compound 148] | 1000 to 10000
38 | < 100 | NCCCC(=O)Nc1cc(Nc2cc(-c3cc(Cl)ccc3F)nc3ncccc23)ncn1 [compound 135] | 100 to 1000
39 | < 100 | Fc1ccc(F)c(-c2cc(Nc3ccnc(Cl)c3)c3cccnc3n2)c1 [compound 125] | 1000 to 10000
40 | < 100 | CC(C)(C)CC(=O)Nc1cc(Nc2cc(-c3cc(Cl)ccc3F)nc3ncccc23)ncn1 [compound 104] | < 100
41 | < 100 | O=[N+]([O-])c1cn(-c2cc(-c3cc(Cl)ccc3F)nc3ncccc23)c2ccncc12 [compound 139] | 1000 to 10000
42 | < 100 | Cc1nn(-c2cc(-c3cc(F)ccc3F)nc3ncccc23)c2ccncc12 [compound 100] | 100 to 1000
43 | < 100 | Cc1cccc(-c2cc(Nc3ccncc3CO)c3cccnc3n2)n1 [compound 81] | 100 to 1000
44 | < 100 | CC(C)(N)CC(=O)Nc1cc(Nc2cc(-c3cc(F)ccc3F)nc3ncccc23)ncn1 [compound 107] | < 100
45 | 1000 to 10000 | Cc1cc(-c2cc(Nc3cc(NCCN4CCCC4)ncn3)c3cccnc3n2)c(C)o1 [compound 147] | > 10000
46 | < 100 | Fc1ccc(Cl)cc1-c1cc(-n2cc(Br)c3cnccc32)c2cccnc2n1 [compound 144] | < 100
47 | 100 to 1000 | Fc1ccc(F)c(-c2cc(Nc3cc(Cl)ncn3)c3cccnc3n2)c1 [compound 103] | > 10000
48 | 1000 to 10000 | Fc1ccc(Cl)cc1-c1cc(Nc2ccnc(-c3cccnc3)n2)c2cccnc2n1 [compound 97] | > 10000
49 | < 100 | CN1CCC(NC(=O)c2cnccc2Nc2cc(-c3cc(Cl)ccc3F)nc3ncccc23)CC1 [compound 95] | < 100
50 | < 100 | CCOC(=O)NCC(=O)Nc1cc(Nc2cc(-c3cc(Cl)ccc3F)nc3ncccc23)ncn1 [compound 130] | < 100
51 | < 100 | CC(C)(C)CC(=O)Nc1cc(Nc2cc(-c3cc(F)ccc3F)nc3ncccc23)ncn1 [compound 105] | 100 to 1000
52 | < 100 | CN1CCC(NC(=O)c2cnccc2Nc2cc(-c3cc(F)ccc3F)nc3ncccc23)CC1 [compound 113] | < 100
53 | < 100 | Cc1cccc(-c2cc(-n3nc(C)c4cnccc43)c3cccnc3n2)n1 [compound 77] | 1000 to 10000
54 | < 100 | O=C(NCCN1CCCC1)c1cnccc1Nc1cc(-c2cc(Cl)ccc2F)nc2ncccc12 [compound 133] | < 100
55 | 100 to 1000 | CC(C)(C)CCNc1cc(Nc2cc(-c3cc(Cl)ccc3F)nc3ncccc23)ncn1 [compound 126] | 100 to 1000
